From patent US11999727B2 (Tango Therapeutics, Inc., priority 2020, dated 2024)

Columns and labels:
PRMT5 [1] = biological target: T1, PRMT5 (Homo sapiens, UniProt O14744); test: PRMT5 biochemical IC50 assay with SAM as cofactor; settings: PRMT5, SAM as cofactor; read-out: SAM IC50
T1 construct: purchased Viva (custom protein)

PRMT5 [2] = biological target: T1, PRMT5; test: PRMT5 biochemical IC50 assay with no cofactor; settings: PRMT5, no cofactor; read-out: No Cofactor/rel IC50
From the text: Table 1 indicates IC50 values (μM) against PRMT5 for exemplary compounds in the presence of SAM as cofactor, with no cofactor, and with MTA as cofactor, respectively (columns 4-6). […] Ki values can be calculated from the IC50 values as described in the Examples section. As detailed in the Examples section, for the assay performed in the presence of SAM, IC50=Ki×1.5 (Ki=IC50/1.5).

PRMT5 [3] = biological target: T1, PRMT5; test: PRMT5 biochemical IC50 assay with MTA as cofactor; settings: PRMT5, MTA as cofactor; read-out: MTA IC50
[4] = system: HAP1 MTAP-intact cell line; test: SDMA in-cell western assay, HAP1 MTAP-intact; assay type: cell-based; settings: Homo sapiens, HAP1, SDMA in-cell western, HAP1 MTAP-intact; read-out: MTAP HAP1 intact IC50
Summary of the method: (§1)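 IC50 values come from SDMA signal quantified by in-cell western in two HAP1 lines, one with native MTAP levels and one lacking MTAP.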

[5] = system: HAP1 MTAP-deleted cell line; test: SDMA in-cell western assay, HAP1 MTAP-deleted; assay type: cell-based; settings: for IC50: Homo sapiens, HAP1, SDMA in-cell western, HAP1 MTAP-deleted; for MTAP intact/deleted ratio: IC50 ratio HAP1 MTAP-intact / HAP1 MTAP-deleted, SDMA in-cell western
Summary of the method: as §1

[6] = system: HAP1 MTAP-deleted cell line; test: Viability assay, MTAP-deleted cell line; assay type: cell-based; settings: Homo sapiens, HAP1, viability assay, read-out: HAP1 MTAP deleted viability
From the text: Table 1 additionally indicates IC50 values in a viability assay for the MTAP-deleted cell line (column 10), indicating the effect of treatment with compound on cell survival.

[7] = read-out: HAP1 MTAP deleted IC50
[8] = read-out: HAP 1 MTAP deleted IC50

T1 sequence (O14744 whole entry): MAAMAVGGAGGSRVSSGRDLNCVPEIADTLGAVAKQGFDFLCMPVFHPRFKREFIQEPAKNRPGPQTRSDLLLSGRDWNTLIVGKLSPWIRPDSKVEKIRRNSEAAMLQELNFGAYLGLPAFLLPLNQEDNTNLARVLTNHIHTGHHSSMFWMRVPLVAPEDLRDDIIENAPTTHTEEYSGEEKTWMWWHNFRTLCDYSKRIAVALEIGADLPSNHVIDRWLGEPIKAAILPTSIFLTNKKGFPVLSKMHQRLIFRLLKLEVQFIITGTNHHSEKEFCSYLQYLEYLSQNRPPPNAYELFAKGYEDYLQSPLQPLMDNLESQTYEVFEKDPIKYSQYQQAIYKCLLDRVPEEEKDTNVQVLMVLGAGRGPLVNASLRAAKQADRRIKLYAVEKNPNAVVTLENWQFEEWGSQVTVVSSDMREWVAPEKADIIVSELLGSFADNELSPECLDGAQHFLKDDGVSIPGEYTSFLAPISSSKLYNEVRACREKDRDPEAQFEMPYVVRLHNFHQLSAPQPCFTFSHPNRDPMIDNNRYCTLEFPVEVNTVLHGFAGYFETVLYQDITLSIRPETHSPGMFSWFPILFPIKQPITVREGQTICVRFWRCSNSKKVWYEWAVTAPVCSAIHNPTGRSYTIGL
T1 sequence (Q9BQA1 whole entry partner): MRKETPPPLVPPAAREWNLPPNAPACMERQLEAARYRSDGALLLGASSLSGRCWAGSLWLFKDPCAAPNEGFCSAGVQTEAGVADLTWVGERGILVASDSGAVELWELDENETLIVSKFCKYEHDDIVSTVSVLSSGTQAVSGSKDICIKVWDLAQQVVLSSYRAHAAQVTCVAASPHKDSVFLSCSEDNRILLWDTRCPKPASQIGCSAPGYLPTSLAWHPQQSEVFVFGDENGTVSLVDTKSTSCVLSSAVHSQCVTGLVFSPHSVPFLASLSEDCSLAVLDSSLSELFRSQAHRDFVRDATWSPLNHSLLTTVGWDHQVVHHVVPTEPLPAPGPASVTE

SMILES	IC50 (PRMT5 [1]) [µM]	IC50 (PRMT5 [2]) [µM]	IC50 (PRMT5 [3]) [µM]	IC50 [4] [µM]	IC50 [5, 7] [µM]	IC50 [5, 8] [µM]	MTAP intact/deleted ratio [5]	IC50 ([6]; MTAP-deleted cell line) [µM]	IC50 ([6]; HAP1 MTAP-deleted) [µM]
Cc1cc(NC(=O)C(=O)N2CCCCC2C2CCC2)cnc1N (stereo not shown) [Compound 182, N-(6-amino-5-methyl-3-pyridyl)-2-(2-cyclobutyl-1-piperidyl)-2-oxo-acetamide]	0.05 to 0.5	0.05 to 0.5	< 0.05	> 1	0.1 to 1		A (an IC50 ratio greater than or equal to 10 fold)	> 10	
CC1CC(C)C(c2ccccc2)N(C(=O)C(=O)Nc2cncc(C(N)=O)c2)C1 (stereo not shown) [Compound 183, 5-(2-(3,5-dimethyl-2-phenylpiperidin-1-yl)-2-oxoacetamido)nicotinamide]	> 0.5	> 0.5	> 0.5	> 1	> 1		C (an IC50 ratio of less than 3 fold)	> 10	
Cc1cncc(NC(=O)C(=O)N2CCCCC2c2ccccc2)c1N (stereo not shown) [Compound 184, N-(4-amino-5-methylpyridin-3-yl)-2-oxo-2-(2-phenylpiperidin-1-yl)acetamide]	> 0.5	> 0.5	0.05 to 0.5	> 1	> 1		C (an IC50 ratio of less than 3 fold)	> 10	
Cc1cc(NC(=O)C(=O)N2CCCCC2C2CCC(F)(F)CC2)cnc1N (stereo not shown) [Compound 186, N-(6-amino-5-methyl-3-pyridyl)-2-[2-(4,4-difluorocyclohexyl)-1-piperidyl]-2-oxo-acetamide]	0.05 to 0.5	0.05 to 0.5	0.05 to 0.5	> 1	0.1 to 1		A (an IC50 ratio greater than or equal to 10 fold)	> 10	
NC(=O)c1cncc(NC(=O)C(=O)N2CCC3(CCOCC3)CC2)c1 [Compound 191, 5-[[2-(3-Oxa-9-azaspiro[5.5]undecan-9-yl)-2-oxo-acetyl]amino]pyridine-3-carboxamide]	> 0.5	> 0.5	0.05 to 0.5	> 1	> 1		C (an IC50 ratio of less than 3 fold)	> 10	
NC(=O)c1cncc(NC(=O)C(=O)N2CCC3(CC2)CCS(=O)(=O)CC3)c1 [Compound 195, 5-(2-(3,3-Dioxido-3-thia-9-azaspiro[5.5]undecan-9-yl)-2-oxoacetamido)nicotinamide]	> 0.5	> 0.5	0.05 to 0.5	> 1	> 1		C (an IC50 ratio of less than 3 fold)	> 10	
NC(=O)c1cncc(NC(=O)C(=O)N2CCC3(CCCCC3)CC2)c1 [Compound 203, 5-[[2-(3-Azaspiro[5.5]undecan-3-yl)-2-oxo-acetyl]amino]pyridine-3-carboxamide]	0.05 to 0.5	> 0.5	< 0.05	> 1	0.1 to 1		A (an IC50 ratio greater than or equal to 10 fold)	> 10	
Cc1cc(NC(=O)C(=O)N2CCCCC2C23CC(C(F)(F)F)(C2)C3)cnc1N (stereo not shown) [Compound 217, N-(6-amino-5-methyl-3-pyridyl)-2-oxo-2-[2-[3-(trifluoromethyl)-1-bicyclo[1.1.1]pentanyl]-1-piperidyl]acetamide]	0.05 to 0.5	> 0.5	0.05 to 0.5	> 1	> 1		B (an IC50 ratio greater than or equal to 3 fold but lower than 10 fold)	> 10	
CCC(C)C1CCCCN1C(=O)C(=O)Nc1cnc(N)c(C)c1 (stereo not shown) [Compound 232, N-(6-amino-5-methyl-3-pyridyl)-2-oxo-2-(2-sec-butyl-1-piperidyl)acetamide]	> 0.5	> 0.5	0.05 to 0.5	> 1	> 1		B (an IC50 ratio greater than or equal to 3 fold but lower than 10 fold)	> 10	
NC(=O)c1cncc(NC(=O)C(=O)N2CCCCC2C2CCCC2)c1 (stereo not shown) [Compound 240, 5-(2-(2-cyclopentylpiperidin-1-yl)-2-oxoacetamido)nicotinamide]	0.05 to 0.5	0.05 to 0.5	< 0.05	> 1	0.1 to 1		A (an IC50 ratio greater than or equal to 10 fold)	> 10	
C[C@@H]1CC[C@@H](c2ccc(F)cc2)N(C(=O)C(=O)Nc2cncc(C(N)=O)c2)C1 [Compound 302, 5-[[2-[(2S,5R)-2-(4-fluorophenyl)-5-methyl-1-piperidyl]-2-oxo-acetyl]amino]pyridine-3-carboxamide]	> 0.5	> 0.5	> 0.5	> 1	> 1		C (an IC50 ratio of less than 3 fold)	> 10	

Second part, led by results:

IC50 (PRMT5 [1]) [µM]	IC50 (PRMT5 [2]) [µM]	IC50 (PRMT5 [3]) [µM]	IC50 [4] [µM]	IC50 [5, 7] [µM]	IC50 [5, 8] [µM]	SMILES	MTAP intact/deleted ratio [5]	IC50 ([6]; MTAP-deleted cell line) [µM]	IC50 ([6]; HAP1 MTAP-deleted) [µM]
> 0.5	0.05 to 0.5	0.05 to 0.5	> 1	> 1		Cc1cc(NC(=O)C(=O)N2CC(C)CCC2C2CNC(=O)C2)cnc1N (stereo not shown) [Compound 210, N-(6-amino-5-methylpyridin-3-yl)-2-(5-methyl-2-(5-oxopyrrolidin-3-yl)piperidin-1-yl)-2-oxoacetamide]	B (an IC50 ratio greater than or equal to 3 fold but lower than 10 fold)	> 10	
< 0.05	< 0.05	< 0.05	> 1	< 0.1		CNc1ccc([C@H]2CC[C@H](C)CN2C(=O)C(=O)Nc2cncc(C(N)=O)c2)cc1 [Compound 438, 5-[[2-[(2R,5S)-5-methyl-2-[4-(methylamino)phenyl]-1-piperidyl]-2-oxo-acetyl]amino]pyridine-3-carboxamide]	A (an IC50 ratio greater than or equal to 10 fold)	< 1	
0.05 to 0.5	0.05 to 0.5	< 0.05	> 1	0.1 to 1		Cc1cc(NC(=O)C(=O)N2CC3(CCC2c2ccc(F)cc2)CC3)cnc1N (stereo not shown) [Compound 753]	A (an IC50 ratio greater than or equal to 10 fold)		1 to 10
0.05 to 0.5	0.05 to 0.5	0.05 to 0.5	> 1	0.1 to 1		NC(=O)c1cncc(NC(=O)C(=O)N2CC3(CCC2c2ccc(F)cc2)CC3)c1 (stereo not shown) [Compound 776, 5-(2-(6-(4-fluorophenyl)-5-azaspiro[2.5]octan-5-yl)-2-oxoacetamido)nicotinamide]	A (an IC50 ratio greater than or equal to 10 fold)		1 to 10
0.05 to 0.5	0.05 to 0.5	< 0.05	> 1	0.1 to 1		CCc1cc(NC(=O)C(=O)N2C[C@@H](C)CC[C@@H]2c2ccc(F)cc2)cnc1C [Compound 779, N-(5-ethyl-6-methyl-3-pyridyl)-2-[(2R,5S)-2-(4-fluorophenyl)-5-methyl-1-piperidyl]-2-oxo-acetamide]	A (an IC50 ratio greater than or equal to 10 fold)		1 to 10
0.05 to 0.5	0.05 to 0.5	< 0.05	> 1		0.1 to 1	COc1cc(NC(=O)C(=O)N2C[C@@H](C)CC[C@@H]2c2ccc(F)cc2)cnc1N [Compound 979, N-(6-amino-5-methoxy-3-pyridyl)-2-[(2R,5S)-2-(4-fluorophenyl)-5-methyl-1-piperidyl]-2-oxo-acetamide]	A (an IC50 ratio greater than or equal to 10 fold)	1 to 10	
0.05 to 0.5	0.05 to 0.5	< 0.05	> 1		< 0.1	C[C@H]1CC[C@H](c2ccc(F)cc2)N(C(=O)C(=O)Nc2cnc(N)c(C3CC3)c2)C1 [Compound 989, N-(6-amino-5-cyclopropyl-3-pyridyl)-2-[(2R,5S)-2-(4-fluorophenyl)-5-methyl-1-piperidyl]-2-oxo-acetamide]	A (an IC50 ratio greater than or equal to 10 fold)	< 1	
0.05 to 0.5	< 0.05	< 0.05	> 1		0.1 to 1	CC(C)c1cc(NC(=O)C(=O)N2C[C@@H](C)CC[C@@H]2c2ccc(F)cc2)cnc1N [Compound 993, N-(6-amino-5-isopropyl-3-pyridyl)-2-[(2R,5S)-2-(4-fluorophenyl)-5-methyl-1-piperidyl]-2-oxo-acetamide]	A (an IC50 ratio greater than or equal to 10 fold)	1 to 10	
